Source: PubChem BioAssay (NCI)
Several values for one entry are separate records, joined by “and”; a condition that tells them apart may be missing. Equal values may be shown once.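 In this assay, cells in 96-well plates receive the compound at five concentrations for 48 hours. Endpoints are linearly interpolated between the surrounding concentrations. Here, GI50 denotes the concentration required for 50% inhibition of growth. Definition used: TGI = concentration required for complete inhibition of growth.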

Key:
Experiment in all cases: NCI tumour cell line growth inhibition, 48 h
[1] = tested on: SK-OV-3 ovarian
[2] = tested on: HCC-2998 colon
[3] = tested on: A549 NSCLC
[4] = tested on: UACC-257 melanoma
[5] = tested on: SW-620 colon
[6] = tested on: MCF7 breast
[7] = tested on: U251 CNS
[8] = tested on: SK-MEL-28 melanoma
[9] = tested on: RXF 393 renal
[10] = tested on: MDA-MB-435

COc1ccc(-c2c(C#N)c(N3CCOCC3)nc3[nH]c(=S)[nH]c(=S)c23)cc1OC
GI50 [1]: 29.1 µM | TGI [1]: > 100 µM | GI50 [2]: 36 µM | TGI [2]: > 100 µM | GI50 [3]: > 100 µM | TGI [3]: > 100 µM | GI50 [4]: > 100 µM | TGI [4]: > 100 µM | GI50 [5]: 49.1 µM | TGI [5]: > 100 µM | GI50 [6]: 29.4 µM | TGI [6]: > 100 µM | GI50 [7]: 46.5 µM | TGI [7]: > 100 µM | GI50 [8]: > 100 µM | TGI [8]: > 100 µM | GI50 [9]: 62.6 µM | TGI [9]: > 100 µM | GI50 [10]: 54.8 µM | TGI [10]: > 100 µM

CCOC(=O)c1c(C)c2c(n1Cc1ccccc1)CSCC2=O
GI50 [1]: 23.8 µM | TGI [1]: > 100 µM | GI50 [2]: 25.4 µM | TGI [2]: > 100 µM | GI50 [3]: 30.6 µM | TGI [3]: > 100 µM | GI50 [4]: 26.9 µM | TGI [4]: 94.1 µM | GI50 [5]: 17.4 µM | TGI [5]: 47 µM | GI50 [6]: 17.7 µM | TGI [6]: 44.7 µM | GI50 [7]: 22.4 µM | TGI [7]: > 100 µM | GI50 [8]: 22.2 µM | TGI [8]: 55.7 µM | GI50 [9]: 16.2 µM | TGI [9]: 70.6 µM | GI50 [10]: 17.3 µM | TGI [10]: 39.1 µM

NNc1ncnc2nc[nH]c12
GI50 [1]: 2.63 µM | TGI [1]: 28.4 µM | GI50 [2]: 7.48 µM | TGI [2]: > 58.1 µM | GI50 [3]: 4.94 µM | TGI [3]: > 38.6 µM | GI50 [4]: 57.6 µM | TGI [4]: > 100 µM | GI50 [5]: 3.91 µM | TGI [5]: > 100 µM | GI50 [6]: 3.1 µM | TGI [6]: > 100 µM | GI50 [7]: 10.9 µM | TGI [7]: > 100 µM | GI50 [8]: 34.6 µM | TGI [8]: > 100 µM | GI50 [9]: 7.16 µM | TGI [9]: > 100 µM | GI50 [10]: 5.57 µM | TGI [10]: > 100 µM

COc1cc(/C=C2\CCCCC3=C2N=C2SC(C)=CN2C3c2cc(OC)c(OC)c(OC)c2)cc(OC)c1OC (stereo not given)
GI50 [1]: 6.23 µM | TGI [1]: > 100 µM | GI50 [2]: 74 µM | TGI [2]: > 100 µM | GI50 [3]: 20.4 µM | TGI [3]: > 100 µM | GI50 [4]: 0.403 µM | TGI [4]: > 100 µM | GI50 [5]: > 100 µM | TGI [5]: > 100 µM | GI50 [6]: 22.6 µM | TGI [6]: > 100 µM | GI50 [7]: 19.2 µM | TGI [7]: > 100 µM | GI50 [8]: 89.1 µM | TGI [8]: > 100 µM | GI50 [9]: 3.06 µM | TGI [9]: > 100 µM | GI50 [10]: 24.3 µM | TGI [10]: > 100 µM

CCCCNCCCNCCCNC(=O)c1csc(-c2csc(CCNC(=O)C(NC(=O)C(C)C(O)C(C)NC(=O)C(NC(=O)c3nc(C(CC(N)=O)NCC(N)C(N)=O)nc(N)c3C)C(OC3OC(CO)C(O)C(O)C3OC3OC(CO)C(O)C(OC(N)=O)C3O)c3cnc[nH]3)C(C)O)n2)n1 (stereo not given)
GI50 [1]: 9.49 µM | TGI [1]: 50 µM and 36.2 µM | GI50 [2]: 15.9 µM | TGI [2]: 50 µM and > 100 µM | GI50 [3]: 1.13 µM | TGI [3]: 10.3 µM and 22.9 µM | GI50 [4]: 0.106 µM | GI50 [5]: 11 µM | TGI [5]: 50 µM and > 100 µM | TGI [6]: 37.7 µM | GI50 [7]: 0.807 µM | TGI [7]: 50 µM and 8.07 µM | GI50 [8]: > 50 µM | TGI [8]: > 75.7 µM | GI50 [9]: 0.443 µM and 0.171 µM | TGI [9]: 2.66 µM and 1.15 µM | TGI [10]: 50 µM

NCCCn1c2c(c3ccc([N+](=O)[O-])cc3c1=O)C(=O)c1cc(I)ccc1-2
GI50 [1]: 0.0825 µM | TGI [1]: 6.5 µM | GI50 [2]: 0.307 µM | TGI [2]: 1.71 µM | GI50 [3]: 0.0133 µM | TGI [3]: 1.74 µM | GI50 [4]: 1.1 µM | TGI [4]: 2.55 µM | GI50 [5]: < 0.01 µM | TGI [5]: 1.76 µM | GI50 [6]: < 0.01 µM | TGI [6]: 0.517 µM | GI50 [7]: < 0.01 µM | TGI [7]: 1.39 µM | GI50 [9]: 0.503 µM | TGI [9]: 2.28 µM | GI50 [10]: 0.223 µM | TGI [10]: 1.85 µM
